# Where two headings read alike, the source gives them in different places.
# Key:
# [1] = tested on: HCT116 cells; experiment: MTT cytotoxicity screening, human colon cancer cell line HCT116; format: cell-based
# Text: Human colon cancer cell line HCT116 can be used for the preliminary cytotoxicity screening of the disclosed compounds as disclosed by Mosmann, T., “Rapid colorimetric assay for cellular growth and survival: application to proliferation and cytotoxicity assays.” J. Immunol. Methods, (1983) 65(1-2): p. 55-63 referred to herein further as the “MTT test” which is incorporated herein by reference in its entirety.
# The disclosure of Mosmann recites the following. “MTT 93-(4,5-dimethylthirazol-2-yl)-2,5-diphenyl tetrazolium bromide; Sigman catalog no. M2128) was dissolved in PBS at 5 mg/ml and filtered to sterilize and remove a small amount of insoluble residue present in some batches of MTT. At the times indicated below, stock MTT solution (10 ml per 100 ml) was added to all wells of an assay, and plates were incubated at 37° C. for 4 h. Acid-siopropanol (100 ml of 0.04 N HCl in isopropanol) was added to all wells and mixed thoroughly to dissolve the dark blue crystals. After a few minutes at room temperature to ensure that all crystals were dissolved, the plates were read o a Dynatech MR580Microelisa reader, using a test wavelength of 570 nm, a reference wavelength of 630 nm, and a calibration setting of 1.99 (or 1.0 if the samples were strongly colored). Plates were normally read within 1 h of adding the isopropanol.
# “Our final procedure was to add 0.01 ml MTT (5 mg/ml in phosphate-buffered saline) to 0.1 ml cells in growth medium. After 4 h at 37° C. for MTT cleavage, the formazan product was solublilized by the addition of 0.1 ml 0.04 N HCl in isopropanol. Optical density was measured on a Dynatech MR 580 plate reader, using a reference wavelength of 630 nm and a test wavelength of 570 nm.” 3-(4,5-Dimethylthiazol-2-yl)-2,5-diphenyltetrazolium bromide, a tetrazole, can pass through cellular membrane to enter into cells. This tetrazole may be reduced to the purple formazan in the mitochondria of living cells, which can diffuse out to form crystals. This crystal can be dissolved in the dimethyl sulfoxide to form a colored solution. The absorbance of this colored solution can be quantified by measuring at certain wavelength (490 nm) using a spectrophotometer. The quantity of the formazan crystal is proportional to the number of living cells.
# As used herein, cells were cultured in McCoy's 5A medium supplemented with 10% heat-inactivated Fetal Bovine Serum (FBS) and 5% Penicillin/Streptomycin solution. McCoy's 5A, 1× (Iwakata & Grace modified) medium with L-Glutamine, DPBS, 1× w/o Ca and Mg, Penicillin/Streptomycin solution, Trypsin EDTA, 1× and PBS, 1× w/o Ca and Mg were purchased from Mediatech, Inc. (USA). FBS was purchased from Hyclone (USA).
# The cytotoxicity of the compounds was estimated using the MTT assay. A 96-well plate was seeded with 100 μl medium containing HCT116 cells in suspension at a density of 2.5×10^4 cells/ml. After 24 hours of incubation, the cells were treated with the compounds, which were dissolved in DMSO (dimethyl sulfoxide) as stock solutions and diluted to final concentrations of 100 μM, 50 μM, 25 μM, 12.5 μM, 6.25 μM & 1 μM (for compounds tested in the micromolar concentrations) and 10 μM, 1 μM, 500 nM, 250 nM, 125 nM & 62.5 nM (for compounds tested in the nanomolar concentration range) using medium containing 0.1% DMSO. The final concentration of DMSO in the culture medium was maintained at 0.1%-0.001% (v/v). After 48 hrs incubation in the presence of test compounds, the spent medium was removed and the wells were washed twice with 100 μL of PBS solution. 100 μL of fresh medium and 10 μL of MTT (5 mg/ml in PBS) was added to the wells and incubated at 37° C. in dark for 4 hrs. The formazan product was dissolved by adding 100 μL of 100% DMSO after removing the medium from each well and was stabilized by adding 12.5 μL of Sorensen's glycine buffer to each well. […]
# [2] = Homo sapiens, HCT-116, 48 hrs incubation, absorbance 490 nm, primary screening, read-out: IC50
# [3] = Homo sapiens, HCT-116, further evaluated after secondary screening (Table VIII), read-out: IC50 value
Molecule,"IC50 ([1]; 48 hrs incubation, absorbance 490 nm, primary screening, read-out: IC50) [µM]","IC50 [1, 2] [µM]",melting point [°C],"IC50 [1, 3] [µM]"
"5,7-dimethoxy-8-(1-methyl-1,2,3,6-tetrahydropyridin-4-yl)-2-(3-methylphenyl)-4H-chromen-4-one [Compound F2]",20.6,–,–,–
"COc1cc(OC)c(C2=CCN(C)CC2)c(O)c1C(=O)/C=C/c1ccccc1 [Compound A1, (E)-1-(2-Hydroxy-4,6-dimethoxy-3-(1-methyl-1,2,3,6-tetrahydropyridine-4-yl)phenyl)-3-phenylprop-2-en-1-one]",–,10.1,–,–
"COc1cc(OC)c(C2=CCN(C)CC2)c(O)c1C(=O)/C=C/c1ccccc1Cl [Compound A2, (E)-3-(2-chlorophenyl)-1-(2-hydroxy-4,6-dimethoxy-3-(1-methyl-1,2,3,6-tetrahydropyridine-4-yl)phenyl)-2-propylene-1-one]",–,28.3,184 to 185,–
"COc1cc(OC)c(C2=CCN(C)CC2)c(O)c1C(=O)/C=C/c1ccccc1[N+](=O)[O-] [Compound A3, (E)-1-(2-hydroxy-4,6-dimethoxy-3-(1-methyl-1,2,3,6-tetrahydropyridine-4-yl)phenyl)-3-(2-nitrophenyl)-2-propylene-1-one]",–,17.9,149 to 151,–
"COc1cccc(/C=C/C(=O)c2c(OC)cc(OC)c(C3=CCN(C)CC3)c2O)c1OC [Compound A4, (E)-3-(2,3-dimethoxyphenyl)-1-(2-hydroxy-4,6-dimethoxy-3-(1-methyl-1,2,3,6-tetrahydropyridine-4-yl)phenyl)-2-propylene-1-one]",–,5.22,171 to 172,> 1
"COc1cc(OC)c(C2=CCN(C)CC2)c(O)c1C(=O)/C=C/c1cccc(C)c1 [Compound A5, (E)-1-(2-hydroxy-4,6-dimethoxy-3-(1-methyl-1,2,3,6-tetrahydropyridine-4-yl)phenyl)-3-meta-methylphenyl-2-propylene-1-one]",–,8.89,165 to 166,–
"COc1cccc(/C=C/C(=O)c2c(OC)cc(OC)c(C3=CCN(C)CC3)c2O)c1 [Compound A6, (E)-1-(2-hydroxy-4,6-dimethoxy-3-(1-methyl-1,2,3,6-tetrahydropyridine-4-yl)phenyl)-3-(3-methoxyphenyl)-2-propylene-1-one]",–,6.78,140 to 141,–
"COc1cc(OC)c(C2=CCN(C)CC2)c(O)c1C(=O)/C=C/c1cccc(Cl)c1 [Compound A7, (E)-3-(3-chlorophenyl)-1-(2-hydroxy-4,6-dimethoxy-3-(1-methyl-1,2,3,6-tetrahydropyridine-4-yl)phenyl)-2-propylene-1-one]",–,3.24,182 to 184,–
"COc1cc(OC)c(C2=CCN(C)CC2)c(O)c1C(=O)/C=C/c1cccc([N+](=O)[O-])c1 [Compound A8, (E)-1-(2-hydroxy-4,6-dimethoxy-3-(1-methyl-1,2,3,6-tetrahydropyridine-4-yl)phenyl)-3-(3-nitrophenyl)-2-propylene-1-one]",–,10.5,128 to 130,–
"COc1cc(OC)c(C2=CCN(C)CC2)c(O)c1C(=O)/C=C/c1ccc(C)cc1 [Compound A9, (E)-1-(2-hydroxy-4,6-dimethoxy-3-(1-methyl-1,2,3,6-tetrahydropyridine-4-yl)phenyl)-3-(4-methylphenyl)-2-propylene-1-one]",–,3.87,150 to 151,–
"COc1ccc(/C=C/C(=O)c2c(OC)cc(OC)c(C3=CCN(C)CC3)c2O)cc1 [Compound A10, (E)-1-(2-hydroxy-4,6-dimethoxy-3-(1-methyl-1,2,3,6-tetrahydropyridine-4-yl)phenyl)-3-(4-methoxyphenyl)-2-propylene-1-one]",–,11.8,177 to 178,–
"COc1cc(OC)c(C2=CCN(C)CC2)c(O)c1C(=O)/C=C/c1ccc(O)cc1 [Compound A11, (E)-1-(2-hydroxy-4,6-dimethoxy-3-(1-methyl-1,2,3,6-tetrahydropyridine-4-yl)phenyl)-3-(4-hydroxyphenyl)-2-propylene-1-one]",–,88.2,98 to 100,–
"COc1cc(OC)c(C2=CCN(C)CC2)c(O)c1C(=O)/C=C/c1ccc(Cl)cc1 [Compound A12, (E)-3-(4-chlorophenyl)-1-(2-hydroxy-4,6-dimethoxy-3-(1-methyl-1,2,3,6-tetrahydropyridine-4-yl)phenyl)-2-propylene-1-one]",–,8.3,169 to 170,–
"COc1cc(OC)c(C2=CCN(C)CC2)c(O)c1C(=O)/C=C/c1ccc(Br)cc1 [Compound A13, (E)-3-(4-bromophenyl)-1-(2-hydroxy-4,6-dimethoxy-3-(1-methyl-1,2,3,6-tetrahydropyridine-4-yl)phenyl)-2-propylene-1-one]",–,8.76,164 to 165,–
"COc1cc(OC)c(C2=CCN(C)CC2)c(O)c1C(=O)/C=C/c1ccc(N(C)C)cc1 [Compound A14, (E)-3-(4-dimethylaminophenyl)-1-(2-hydroxy-4,6-dimethoxy-3-(1-methyl-1,2,3,6-tetrahydropyridine-4-yl)phenyl)-2-propylene-1-one]",–,30.5,176 to 177,–
"COc1cc(OC)c(C(=O)/C=C/c2ccc(C)cc2)c(O)c1CN1CCCCC1 [Compound C1, (E)-1-(2-hydroxy-4,6-dimethoxy-3-(piperidin-1-ylmethyl)phenyl)-3-(4-methylphenyl)-2-propylene-1-one]",–,5.57,–,–
"COc1cccc(/C=C/C(=O)c2c(OC)cc(OC)c(CN3CCCCC3)c2O)c1 [Compound C3, (E)-1-(2-hydroxy-4,6-dimethoxy-3-(piperidin-1-ylmethyl)phenyl)-3-(3-methoxyphenyl)-2-propylene-1-one]",–,2.85,–,–
COc1cc(OC)c(C(=O)/C=C/c2cccc(C)c2)c(O)c1CN1CCCCC1 [Compound C5],–,–,113 to 114,–
COc1cc(OC)c(C(=O)/C=C/c2ccc(Br)cc2)c(O)c1CN1CCCCC1 [Compound C6],–,–,99 to 100,–
"COc1cc(OC)c(C(=O)/C=C/c2cccc(C)c2)c(O)c1CN1CCOCC1 [Compound D7, (E)-3-(3-methylphenyl)-1-(2-hydroxy-4,6-dimethoxy-3-(morpholinemethyl)-phenyl)-2-propylene-1-one]",–,–,158 to 159,–
"COc1cc(OC)c(C(=O)/C=C/c2cc(OC)c(OC)c(OC)c2)c(O)c1CN1CCOCC1 [Compound D8, (E)-3-(3,4,5-trimethoxyphenyl)-1-(2-hydroxy-4,6-dimethoxy-3-(morpholinemethyl)-phenyl)-2-propylene-1-one]",–,–,169 to 170,–
"COc1cc(OC)c2c(=O)cc(-c3ccccc3)oc2c1C1=CCN(C)CC1 [Compound F1, 5,7-Dimethoxy-8-(1-methyl-1,2,3,6-tetrahydropyridin-4-yl)-2-phenyl-4H-chromen-4-one]",–,21.1,–,–
"CN1CC=C(c2c(O)cc(O)c3c(=O)cc(-c4ccccc4)oc23)CC1 [Compound G1, 5,7-hydroxy-8-(1-methyl-1,2,3,6-tetrahydropyridin-4-yl)-2-phenyl-4H-chromen-4-one]",–,3.76,–,–
"CN1CC[C@H](c2c(O)cc(O)c3c(=O)cc(-c4ccccc4Cl)oc23)[C@H](O)C1 [flavopiridol, reference compound]",–,–,–,~0.13
